Tests used:
maltase = system: maltase; design: method as in PMID 28482265; conditions: cited from earlier work
glucoamylase = system: glucoamylase; design: method as in PMID 28482265; conditions: cited from earlier work
isomaltase = system: isomaltase; design: method as in PMID 28482265; conditions: cited from earlier work
[1] = molecular target: T1, α-amylase from porcine pancreas (Sus scrofa, UniProt P00690); assay: α-Amylase inhibition assay; assay type: biochemical; conditions: mean ± SEM; starch substrate, DNSA
T1 construct: α-amylase from porcine pancreas (Sigma A3176-500KU, 089K1661); purchased Sigma A3176-500KU (lot 089K1661); host or cells: porcine pancreas
T1 sequence (P00690 16-511): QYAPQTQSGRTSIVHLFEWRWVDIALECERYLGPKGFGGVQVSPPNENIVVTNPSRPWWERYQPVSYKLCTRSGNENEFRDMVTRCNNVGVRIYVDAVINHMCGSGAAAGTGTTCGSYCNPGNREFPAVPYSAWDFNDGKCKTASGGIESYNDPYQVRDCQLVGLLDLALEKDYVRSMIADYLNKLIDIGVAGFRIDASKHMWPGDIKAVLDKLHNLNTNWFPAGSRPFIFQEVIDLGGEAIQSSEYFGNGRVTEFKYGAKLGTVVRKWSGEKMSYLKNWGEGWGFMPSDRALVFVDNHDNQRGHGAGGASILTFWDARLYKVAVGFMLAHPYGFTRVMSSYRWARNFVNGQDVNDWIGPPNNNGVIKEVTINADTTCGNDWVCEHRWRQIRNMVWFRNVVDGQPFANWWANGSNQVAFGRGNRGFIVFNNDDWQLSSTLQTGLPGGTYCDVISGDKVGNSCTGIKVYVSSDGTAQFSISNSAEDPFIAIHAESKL
Procedure: The α-amylase inhibitory activity of sinigrin was determined according to a previously reported method with slight modifications. Briefly, 40 μL of a solution of the test inhibitor and 40 μL of enzyme solution (α-amylase from porcine pancreas (Sigma A3176-500KU, 089K1661) in a buffer of 0.02 M sodium phosphate at pH 6.9 with 0.006 M sodium chloride) were added to a 1.5-mL Eppendorf tube and incubated for 10 min at room temperature. […] Then, 100 μL of DNSA colouring reagent (10 g of sodium potassium tartrate, 1 g of 3,5-dinitrosalicylic acid and 20 mL of 2 N NaOH to a final volume of 100 mL in distilled water) was added, and the mixture was incubated in a boiling water bath for 5 min. After cooling to room temperature, the reaction mixture was diluted to 500 μL using distilled water, and the absorbance was recorded at 540 nm. For non-enzymatic reactions, the assays were performed with a blank containing all of the components except the enzyme. The values of the % inhibition and IC50 were calculated from the results of the assays using the same procedure as that described for the α-glucosidase inhibition assays.

[2] = DPPH free radical scavenging assay; conditions: 100 µg/mL
Procedure: Radical scavenging activity was determined by modifying a previously reported 2,2-diphenyl-1-picrylhydrazyl (DPPH) assay. The assay solution consisted of 100 µL of DPPH solution (150 µM), 20 µL of the test compounds solution at increasing concentrations, and enough DMSO to bring the volume of solution in each well to 200 µL. The reaction mixture was then incubated for 30 min at room temperature. Ascorbic acid (vitamin C) was used as a reference inhibitor. The assay measurements were carried out using a micro plate reader (OPTIMax, Tunable) at 520 nm. The reaction rates were compared, and the percentages of inhibition caused by the presence of the test inhibitors were calculated. Each concentration was analysed in three independent experiments run in triplicate.

α-glucosidase = α-glucosidase (Saccharomyces cerevisiae, UniProt P53341); assay: Kinetic study of α-glucosidase (Lineweaver-Burk); assay type: biochemical; conditions: Lineweaver-Burk plot
Procedure: To understand the inhibition mechanism of the synthesized compounds on α-glucosidase, an inhibition kinetics study was performed. […] In our evaluation of the kinetics of the enzyme, the Lineweaver-Burk plot of 1/V versus 1/[S] in the presence of different inhibitor concentrations gave a series of straight lines. […] Km increases with increasing concentration, while Vmax remains essentially constant.
A series of experiments was performed to calculate the inhibition kinetics of 5g. The tested concentrations of 5g were 0.00, 0.15 and 0.3. The concentration of substrate, p-nitrophenyl-α-D-glucopyranoside, was between 0.3125 and 10 mM in all the kinetics experiments. The pre-incubation and measurement times were the same as those discussed in the α-glucosidase inhibition assay procedure. The maximal initial velocity was determined from the initial linear portion of absorbance in the first five minutes following the addition of the enzyme at 30 s intervals. The type of inhibition of the enzyme was assessed by preparing Lineweaver-Burk plots of the inverse of the velocities (1/V) versus the inverse of the substrate concentration 1/[S] mM^−1. The EI dissociation constant, Ki, was determined by the secondary plot of 1/V versus the inhibitor concentration.

Sequence of α-glucosidase (P53341 whole entry): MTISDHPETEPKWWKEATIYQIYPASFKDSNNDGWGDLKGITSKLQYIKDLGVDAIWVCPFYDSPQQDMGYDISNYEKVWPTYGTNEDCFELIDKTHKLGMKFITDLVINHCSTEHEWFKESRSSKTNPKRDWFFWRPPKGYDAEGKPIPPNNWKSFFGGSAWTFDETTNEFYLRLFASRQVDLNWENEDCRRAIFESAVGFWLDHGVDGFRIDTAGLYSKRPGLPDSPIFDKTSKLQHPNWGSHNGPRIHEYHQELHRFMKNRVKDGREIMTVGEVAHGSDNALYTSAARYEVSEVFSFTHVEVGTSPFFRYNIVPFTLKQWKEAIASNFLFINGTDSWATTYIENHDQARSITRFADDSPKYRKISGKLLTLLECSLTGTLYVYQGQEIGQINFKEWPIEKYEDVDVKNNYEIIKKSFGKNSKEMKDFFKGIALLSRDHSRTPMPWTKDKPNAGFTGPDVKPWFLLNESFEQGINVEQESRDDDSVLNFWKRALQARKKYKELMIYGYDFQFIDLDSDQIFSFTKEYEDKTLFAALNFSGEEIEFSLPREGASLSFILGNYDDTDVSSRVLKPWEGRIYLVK

For `C[C@H]1O[C@H](O[C@H]2[C@H](O)[C@@H](O)[C@@H](O[C@H]3[C@H](O)[C@@H](O)C(O)O[C@@H]3CO)O[C@@H]2CO)[C@H](O)[C@@H](O)[C@@H]1N[C@H]1C=C(CO)[C@@H](O)[C@H](O)[C@H]1O` (some centres unmarked) [Acarbose, acarbose], the inhibition of maltase (maltase) is listed as 60%, the inhibition of glucoamylase (glucoamylase) is listed as 90% and the inhibition of isomaltase (isomaltase) is listed as 10%.

For `O=[N+]([O-])c1ccc(/N=N/c2ccc(O)c(/C=N/N=C/c3cc(/N=N/c4ccc([N+](=O)[O-])cc4[N+](=O)[O-])ccc3O)c2)c([N+](=O)[O-])c1` [Compound 5a, (E)-2,2’-((1E,1’E)-Hydrazine-1,2-diylidenebis(methanylylidene))bis(4-((E)-(2,4-dinitrophenyl)diazenyl)phenol)], the melting point was 275 °C and the IC50 [1] was 8.54 ± 0.653 µM.

`Oc1ccc(/N=N/c2cccc(Cl)c2Cl)cc1/C=N/N=C/c1cc(/N=N/c2cccc(Cl)c2Cl)ccc1O` [Compound 5b, (E)-2,2’-((1E,1’E)-Hydrazine-1,2-diylidenebis(methanylylidene))bis(4-((E)-(2,3-dichlorophenyl)diazenyl)phenol)] showed a melting point of 222 °C and an IC50 [1] of 28.4 ± 2.17 µM.

For `Oc1ccc(/N=N/c2ccccc2Cl)cc1/C=N/N=C/c1cc(/N=N/c2ccccc2Cl)ccc1O` [Compound 5c, (E)-2,2’-((1E,1’E)-Hydrazine-1,2-diylidenebis(methanylylidene))bis(4-((E)-(2-chlorophenyl)diazenyl)phenol)], the melting point was 195 °C and the IC50 [1] was 9.55 ± 0.73 µM.

With `Oc1ccc(/N=N/c2ccc(Cl)cc2)cc1/C=N/N=C/c1cc(/N=N/c2ccc(Cl)cc2)ccc1O` [Compound 5d, (E)-2,2’-((1E,1’E)-Hydrazine-1,2-diylidenebis(methanylylidene))bis(4-((E)-(4-chlorophenyl)diazenyl)phenol)] the melting point was 205 °C, the IC50 [1] was 9.72 ± 0.863 µM and the “Free radical scavenging activity (%)” value [2] was “did not show significant scavenging potencies”.

`NS(=O)(=O)c1ccc(/N=N/c2ccc(O)c(/C=N/N=C/c3cc(/N=N/c4ccc(S(N)(=O)=O)cc4)ccc3O)c2)cc1` [Compound 5e, 4,4’-((1E,1’E)-(((1E,1’E)-Hydrazine-1,2-diylidenebis(methanylylidene))bis(4-hydroxy-3,1-phenylene))bis(diazene-2,1-diyl))dibenzenesulfonamide] gave a melting point of 225 °C and an IC50 [1] of 28.5 ± 2.08 µM.

In the case of `O=S(=O)([O-])c1ccc(/N=N/c2ccc(O)c(/C=N/N=C/c3cc(/N=N/c4ccc(S(=O)(=O)[O-])cc4)ccc3O)c2)cc1.[Na+].[Na+]` [Compound 5f, Sodium 4,4’-((1E,1’E)-(((1E,1’E)-hydrazine-1,2-diylidenebis(methanylylidene))bis(4-hydroxy-3,1-phenylene))bis(diazene-2,1-diyl))dibenzenesulfonate], the melting point is reported as 240 °C, the IC50 [1] is reported as 4.29 ± 0.328 µM and the “Free radical scavenging activity (%)” value [2] is reported as “did not show significant scavenging potencies”.

In the case of `O=[N+]([O-])c1ccc(/N=N/c2ccc(O)c(/C=N/N=C/c3cc(/N=N/c4ccc([N+](=O)[O-])cc4)ccc3O)c2)cc1` [Compound 5g, (E)-2,2’-((1E,1’E)-Hydrazine-1,2-diylidenebis(methanylylidene))bis(4-((E)-(4-nitrophenyl)diazenyl)phenol)], the melting point is reported as 215 °C, the IC50 [1] is reported as 0.438 ± 0.042 µM and the “Free radical scavenging activity (%)” value [2] is reported as “did not show significant scavenging potencies”. The type of inhibition (α-glucosidase) was “competitive”.

`Oc1ccc(/N=N/c2cccc(Cl)c2)cc1/C=N/N=C/c1cc(/N=N/c2cccc(Cl)c2)ccc1O` [Compound 5h, (E)-2,2’-((1E,1’E)-Hydrazine-1,2-diylidenebis(methanylylidene))bis(4-((E)-(3-chlorophenyl)diazenyl)phenol)] gave a melting point of 210 °C and an IC50 [1] of 0.59 ± 0.012 µM.
